The source of these data is PubChem BioAssay (NCI).

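A five-concentration, 48-hour dose response in 96-well plates underlies each endpoint, interpolated linearly between surrounding concentrations. TGI: total growth inhibition.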

Some test systems named below: SN12C renal; CAKI-1 renal; PC-3 prostate; SR leukemia; NCI-H226 lung; SF-539 CNS.
Assay in all cases: NCI anticancer screen, dose series, 48 h

With `COc1cc(/C=C2\CCC(C)c3c2nc(N)c(C#N)c3-c2cc(OC)c(OC)c(OC)c2)cc(OC)c1OC` (stereo not given), the TGI in the test on SN12C renal, in the test on CAKI-1 renal, in the test with PC-3 prostate and in the test with SR leukemia was above 100 µM each time.
For `c1ccc2c(OCC3CO3)ccc(OCC3CO3)c2c1` (stereo not given), the TGI was determined as 11.5 µM with SN12C renal; 3.32 µM in the test on CAKI-1 renal; 27.7 µM in the test with NCI-H226 lung; 4.8 µM in the test on SF-539 CNS; 17.1 µM with PC-3 prostate; 11.1 µM with SR leukemia.
Regarding `COc1ccc2cc(CNCCCN3CCN(CCCNCc4ccc5cc(OC)ccc5c4)CC3)ccc2c1`, the TGI in the test on SN12C renal worked out at 3.11 µM; in the test with CAKI-1 renal, 3.2 µM; in the test with NCI-H226 lung, 3.69 µM; with SF-539 CNS it was 3.39 µM; in the test on PC-3 prostate, 2.36 µM; in the test on SR leukemia, 0.658 µM.
For `C=C(CO)[C@H]1CC/C(C)=C/CC/C(C)=C/C/C=C(\C)[C@H](O)C1`, the TGI in the test on SN12C renal is 81.7 µM; in the test with CAKI-1 renal, 75.1 µM; in the test with NCI-H226 lung, 90.9 µM; in the test with SF-539 CNS, 40.8 µM; in the test with PC-3 prostate, above 100 µM.
Regarding `C=CCNC(NCC=C)=C(C(Cl)=C(Cl)Cl)[N+](=O)[O-]`, the TGI is above 100 µM in the test with SN12C renal; above 100 µM in the test on CAKI-1 renal; above 100 µM in the test on NCI-H226 lung; 71.7 µM in the test with SF-539 CNS; above 100 µM in the test on PC-3 prostate.
As for `Cc1cc(Cl)ccc1NC(=O)/C(CC(=O)CC(c1ccccc1)c1c(O)c2ccccc2oc1=O)=N\O` (stereo not given), the TGI in the test with SN12C renal, with CAKI-1 renal, with NCI-H226 lung, in the test on SF-539 CNS and in the test on PC-3 prostate was above 100 µM throughout.
Take `O=c1c2cc([N+](=O)[O-])cnc2sn1-c1ccc(Oc2ccccc2)cc1`: the TGI in the test on SN12C renal, with NCI-H226 lung, in the test with SF-539 CNS, in the test with PC-3 prostate and in the test with SR leukemia was above 100 µM in each case.
Consider `O=c1oc2ccccc2c(O)c1C(c1ccc2ccccc2c1)c1c(O)c2ccccc2oc1=O`, for which the TGI is 45.3 µM in the test on SN12C renal; 54.7 µM in the test on CAKI-1 renal; 67.9 µM in the test with NCI-H226 lung; 68.9 µM with SF-539 CNS; above 100 µM with PC-3 prostate.
For the molecule `Cn1c(=S)[nH]c2c(Cl)cc(Cl)cc2c1=O`, the TGI with SN12C renal, in the test with CAKI-1 renal, with SF-539 CNS and in the test on PC-3 prostate was above 100 µM throughout.
As to `CCOC(=O)C(NC(=O)NCc1ccc(F)cc1)C(F)(F)F` (stereo not given), the TGI in the test with SN12C renal, with SF-539 CNS, in the test with PC-3 prostate and in the test with SR leukemia was above 100 µM throughout.
For the molecule `Cc1ccc(-c2cnc(NC3OC(COC(=O)c4ccccc4)C(OC(=O)c4ccccc4)C(OC(=O)c4ccccc4)C3OC(=O)c3ccccc3)s2)cc1` (stereo not given), the TGI in the test on SN12C renal, with NCI-H226 lung, in the test with PC-3 prostate and in the test with SR leukemia was above 100 µM in each case.
In the case of `Cc1nc2c(n1CCCl)C(=O)c1ccccc1C2=O`, the TGI in the test with SN12C renal is above 100 µM; in the test on NCI-H226 lung, 50.1 µM; in the test on SF-539 CNS, above 100 µM; in the test on PC-3 prostate, 46.1 µM; with SR leukemia, above 100 µM.
For the molecule `Clc1cccc(Cl)c1C1SCc2nc3cc4ccccc4cc3n21` (stereo not given), the TGI with SN12C renal, in the test with CAKI-1 renal, in the test on NCI-H226 lung and with PC-3 prostate was above 100 µM in each case.
For the molecule `C#CCOC(=O)C(N)CS` (stereo not given), the TGI with SN12C renal, in the test with CAKI-1 renal, with NCI-H226 lung and in the test on PC-3 prostate was above 100 µM in each case.
In the case of `COc1ccc(OC)c2c(=O)cc(-c3ccccc3)[nH]c12`, the TGI in the test on SN12C renal, in the test on NCI-H226 lung, with PC-3 prostate and with SR leukemia was above 100 µM throughout.
With `CCOC(=O)C1C(C(C)C)C2(C#N)C(=N)OC1(C)C2(C#N)C#N` (stereo not given), the TGI in the test on SN12C renal was above 100 µM; with CAKI-1 renal, 23 µM; in the test with NCI-H226 lung, above 100 µM; in the test with SF-539 CNS, above 100 µM; in the test with PC-3 prostate, above 100 µM.
As for `CCC1=NC(N/N=C/c2ccccc2O)=N/C1=C\c1ccccc1O`, the TGI was above 83 µM in the test on SN12C renal; above 100 µM in the test with CAKI-1 renal; above 69 µM in the test on NCI-H226 lung; above 100 µM in the test with PC-3 prostate; above 100 µM in the test on SR leukemia.
On to `Nc1ccccc1C(=O)NNC(=O)c1ccccc1N`, for which the TGI in the test with SN12C renal, in the test on CAKI-1 renal, in the test with NCI-H226 lung, with SF-539 CNS and in the test on PC-3 prostate was above 100 µM in each case.
As for `CC/C(=C/OC)P1(=O)OC(C)(C)CN1C(C)(C)C` (stereo not given), the TGI with CAKI-1 renal, in the test with NCI-H226 lung, in the test on SF-539 CNS, in the test on PC-3 prostate and with SR leukemia was above 100 µM in each case.
Consider `CC1=C(C(=O)OC23CC4CC(CC(C4)C2)C3)C(c2ccccc2OC(F)F)C(C(=O)OC23CC4CC(CC(C4)C2)C3)=C(C)N1` (stereo not given), for which the TGI with SN12C renal, with CAKI-1 renal, in the test on NCI-H226 lung, in the test on SF-539 CNS and in the test with SR leukemia was above 100 µM throughout.
On to `CC1(C)C[C@H]2C3=CC[C@@H]4[C@@]5(C)CC[C@H](O)C(C)(C)[C@@H]5CC[C@@]4(C)[C@]3(C)C[C@@H](O)[C@@]23C[C@@H]1OC3=O`, for which the TGI with SN12C renal, with CAKI-1 renal, in the test on SF-539 CNS, with PC-3 prostate and with SR leukemia was above 100 µM in each case.
As for `Cc1cc2c(cc1Cl)SC(NNC(=O)c1ccncc1)=NS2(=O)=O`, the TGI with SN12C renal, with CAKI-1 renal, with NCI-H226 lung, in the test on SF-539 CNS and with PC-3 prostate was above 10 µM each time.
